Data set [1] is described as follows: Solid state stability of salt forms and free base. It counts as physicochemical.
A short description of data set [2]: Dynamic vapor sorption (hygroscopicity). The class given is physicochemical. To be noted: DVS; listed as monohydrate free base. On the procedure: Dynamic vapor sorption (DVS) was measured using DVS advantage (Surface Measurement Systems Ltd). The samples were tested under isotherm (25° C.) at a targeted RH of 0 to 95% full cycle in step mode. For an isotherm test, the chamber temperature was maintained by a water bath at constant 25.0±1.0° C. The relative humidity in the sample chamber was generated by combining different flows of wet and dry nitrogen with variable flow rates. The analysis was performed in 10% RH increments. Sampling rate was 1 sec save data rate is 20 sec. The dm/dt (%) value was set at 0.001 with a dm/dt window of 5 min., a minimum stability duration time of 10 min, and a maximum stage time of 180 min. The sample's equilibrium weight corresponding to each RH was recorded. A sorption isotherm was obtained by plotting equilibrium moisture content versus RH.
Hygroscopicity was determined on a Surface Measurement Systems DVS. A sample size of 5-20 mg was loaded into the DVS instrument sample pan and the sample was analyzed on a DVS automated sorption analyzer at room temperature. The relative humidity was increased from 0% to 90% RH at 10% RH step, then decreased in a similar manner to accomplish a full adsorption/desorption cycle.

Data set [3] is described as follows: Stability of free base in solution and in solid state under stress conditions. It counts as physicochemical.
Data set [4] can be described thus: physchem. The conditions noted are these: simulated gastric fluid, thermodynamic from solid.
Data set [5] is described as follows: physchem. To be noted: FaSSGF, fassgf or other biorelevant.
Data set [6] is described as follows: Solubility in biorelevant media (FeSSIF, FaSSIF, FaSSGF, FeSSGF).
Data set [7] can be described thus: Solubility of salt forms and free base in water, SGF, SIF and 0.5% HPMC in […] Tween 80.

Converted amounts (≈) assume the structure as drawn. Where two headings read alike, the source gives them in different places.

For orientation: solubility (thermodynamic) means solubility found after equilibrating the solid with the medium. What is called solubility is the concentration that dissolves in the medium under given conditions. Read a high solubility as a readily soluble substance.

On to `C[C@]1(C(N)=O)CC[C@@H](n2c(Nc3c(Cl)cc(Cl)cc3Cl)nc3cnc(N[C@@H]4CCOC[C@H]4F)nc32)CC1` [Free Base], for which the “Conc. at 24 Hrs” value was 3 µg/mL. In data set [1], the “solid state stability (in words)” value is “chemically and physically stable in solid state”. For the same compound, in data set [1] (40° C./75% RH), the “Physical (40° C./75% RH)” value is on record as “Stable”. Also, in data set [1] (60° C.), the “Chemical (60° C.) RRT2.2” value is under 0.03% and the “Physical (60° C.)” value is “Dehydration (−),”. In data set [2], the “hygroscopicity (in words)” value was “slightly hygroscopicity”. In addition, the “temperature above which crystal form of monohydrate changes” value in data set [3] was over 60 °C. Moreover, in data set [3] (pH 1.2 to 7.5, 40° C.), the stability in solution entry is reported as “stable”. Also, the “chemical and physical stability in solid state under stress conditions” value in data set [3] (solid state, stress conditions) is “up to seven weeks”. Besides, where the note is “pH 4.23”, the “Conc. at 24 Hrs” value came out at 178 µg/mL. This compound yielded a thermodynamic solubility at 24 h in the data set “physchem [4]” of 3480 µg/mL (≈ 6.1 mM). In the data set “physchem [5]”, this compound displayed a solubility of 3850 µg/mL (≈ 6.74 mM). This compound gave a pH in data set [6] (FaSSGF) of 2.77. In data set [6] (FaSSIF), this compound returned a pH of 6.37. For the same compound, the pH in data set [6] (FeSSGF) worked out at 6.23. In data set [6] (FeSSIF), this compound showed a pH of 4.95. Besides, the pH at final in data set [7] (0.5% HPMC/[…] Tween80) was found to be 4.23. Besides, the pH at final in data set [7] (SGF) was 1.93. Further, in data set [7] (SIF), the pH at final stood at 7.33. For the same compound, the pH at final in data set [7] (Water) worked out at 8.11.

These data come from US10513519B2, “Solid forms of (1S,4S)-4-(2-(((3S,4R)-3-fluorotetrahydro-2H-pyran-4-yl)amino)-8-((2,4,6-trichlorophenyl)amino)-9H-purin-9-yl)-1-methylcyclohexane-1-carboxamide and methods of their use” (Signal Pharmaceuticals, LLC, priority 2016, dated 2019).
